Values quoted from earlier work in patent US6338847B1, “Compositions and methods to disinfect contact lenses” (Allergan, priority 1993, dated 2002).

Test system: cyst form of acanthamoeba

Molecule | survival of cysts exposed to hydrogen peroxide (exposed for two hours) | time to killing all the cysts (lysozyme included in the hydrogen peroxide solution) [min]
OO [hydrogen peroxide] | survived after two weeks | 
lysozyme (protein, UniProt P61626 19-148, looked up, cellulose and/or chitin decomposing enzyme component; a primary tear protein) Lysozyme C: KVFERCELARTLKRLGMDGYRGISLANWMCLAKWESGYNTRATNYNAGDRSTDYGIFQINSRYWCNDGKTPGAVNACHLSCSALLQDNIADAVACAKRVVRDPQGIRAWVAWRNRCQNRDVRQYVQGCGV |  | ≤ 30
